Experiments:
Type in all cases: cell-based
human skin fibroblasts [1] = assay: MTT cytotoxicity assay; conditions: concentration up to 50 μM, 72 hours after treatment (FIG. 9)
Protocol: FIG. 9 is a graph showing the results of analyzing the effect of RSC-133 on the cytotoxicity of human skin fibroblasts. At 72 hours after treatment with various concentrations of RSC-133, cytotoxicity was measured by MTT (3-(4,5-dimethylthiazol-2-yl)-2,5-diphenyltetrazolium bromide (yellow tetrazole) assays. The values shown on the graph are mean values. The data are expressed as mean±SD (n=3).

human skin fibroblasts [2] = assay: Cell growth (total number of cells) during reprogramming culture
Text: In still another example of the present invention, whether the novel compound RSC-133 has the effect of promoting the growth and proliferation of cells in a culture process for inducing reprogramming was examined by measuring the total number of cells at various time points (FIG. 11). […] In addition, a change in the proliferation of cells during a culture process for inducing reprogramming was examined by a BrdU assay.
FIG. 11 is a graph showing the effect of RSC-133 on cell growth during a reprogramming process. The results were obtained in the same manner as those in FIG. 10. The values shown on the graph are mean values. The data ate are expressed as mean±SD (n=3).
FIG. 12 is a graph showing the results of examining the effect of RSC-133 on the growth of human skin fibroblasts or human skin fibroblasts infected with a reprogramming factor (OSKM) virus. The values shown on the graph are mean values. The data are mean±SD (n=3).
In addition, the growth rate of cells is associated with the self-renewal ability of embryonic stem cells. Thus, whether the novel compound RSC-133 can promote cell growth during reprogramming was examined. As a result, it could be seen that when reprogramming was induced while the cells were treated with RSC-133, the growth rate of the cells increased by about 1.7 times compared to that of the control group (FIG. 11). […]

human skin fibroblasts [3] = assay: BrdU immunocytochemical analysis of proliferating cell population
Protocol: Immunocytochemical analysis was performed using monoclonal antibody for bromodeoxyuridine (BrdU), and then percent BrdU positive cells are graphically shown. The values shown on the graph are mean values. The data are expressed as ±SD (n=3) (*P<0.05, by t-test).
The left panel is a set of graphs showing the results of immunocytochemical analysis performed using monoclonal antibody for BrdU, and the right panel is a graph showing the results of measurement of percent BrdU positive cells. The values shown on the graph are mean values. The data are expressed as mean±SD (n=3).
For immunostaining, cells were seeded on Matrigel-coated 4-well Lab-Tek chamber slides (Nunc, Naperville, Ill.) and cultured for 5 days under the indicated conditions. The cells were fixed in 4% paraformaldehyde at room temperature for 15 minutes, and then washed with PBS/0.2% BSA. Next, the cells were passed through PBS/0.2% BSA/0.1% Triton X-100 for 15 minutes, and then incubated with 4% normal donkey serum (Molecular Probes, Eugene, Oreg., USA) in PBS/0.2% BSA at room temperature for 1 hour. The cells were diluted with PBS/0.2% BSA, and then reacted with primary antibody at 4° C. for 2 hours. After washing, the cells were reacted with FITC- or Alexa594-conjugated secondary antibody (Invitrogen) in PBS/0.2% BSA at room temperature for 1 hour. The cells were counter-stained with 10 μg/ml DAPI. […]

[4] = target: T1, DNA methyl transferase 1 (DNMT1) (Homo sapiens, UniProt P26358); assay: DNMT1 activity during reprogramming; conditions: 10 days after induction of reprogramming, compared to untreated control (OSKM alone) (FIG. 20)
T1 construct: endogenous in cells; host or cells: human skin (foreskin) fibroblasts (hFF, ATCC CRL-2097) transduced with OSKM retrovirus
Text: For comparison, the activity of DNMT1 in the absence of RSC-133 was set at 100%.
RSC133 regulates the activities of epigenetic regulators such as DNA methyltransferase (DNMT) and histone deacetylase (HDAC). At 10 days after induction of reprogramming by RSC133, the activity of DNMT1 was reduced by about 38% compared to that in an untreated control group (OSKM alone) (FIG. 20). Epigenetic chromatin remolding by DNA methylation and/or histone modification plays an important in a wide range of transcriptional regulation in the reprogramming process. […] The increased level of H3K9 histone acetylation (ace) is particularly associated with the restoration of pluripotency and reprogramming ability. It is known that DNA methylation by DNMT1 has a close connection with the change in chromatin status caused by HDAC activity.

[5] = tested on: H9 human embryonic stem cells; assay: Maintenance of undifferentiated state of hESC in unconditioned medium
Protocol: It was observed that, when H9 human embryonic stem cells (hESs) were cultured in unconditioned medium (UM), the differentiation thereof was induced, but when the cells were cultured in UM containing RSC-133, the degree of induced differentiation was inhibited, and pluripotency was acquired again. The efficiency of acquisition of pluripotency was measured by calculating the number of colonies showing AP activity. The values shown on the graph are mean values. The data are expressed as mean±SD (n=3) (*P<0.01, **P<0.005, by t-test).
Human skin fibroblasts (hFFs) were used as a negative control group. H3 and GAPDH proteins were used as internal controls.
Human embryonic stem cell (hESC) H9 (NIH Code, WA09; WiCell Research Institute, Madison, Wis.) and reprogrammed stem cells (hiPSC) were generally cultured in hESC culture medium (composed of 80% DMEM/F12, 20% knockout serum replacement (KSR, Invitrogen, Carlsbad, Calif.), 1% non-essential amino acids (NEAR, Invitrogen), 1 mM L-glutamine (Invitrogen), 0.1 mM β-mercaptoethanol (Sigma, St. Louis, Mo.) and 6 ng/ml bFGF (basic fibroblast growth factor, Invitrogen)) on γ-irradiated MEFs (mouse embryonic fibroblasts). The cells were subcultured with 1 mg/ml collagenase IV (Invitrogen) at intervals of 5-6 days. Human newborn foreskin fibroblasts (hFF, ATCC, catalog number CRL-2097; American Type Culture Collection, Manassas, Va.) were cultured in DMEM containing 10% FBS (fetal bovine serum, Invitrogen), 1% non-essential amino acid, 1 mM L-glutamine and 0.1 mM β-mercaptoethanol.
When human embryonic stem cells (H9) are cultured in unconditioned medium (UM), their differentiation is induced. […] As a positive control group, embryonic stem cells cultured for 6 days in MEF-conditioned medium (CM) effective for maintenance of an undifferentiated state were used. The efficiency of maintenance of an undifferentiated state and inhibition of differentiation was determined by measuring the number of colonies showing AP activity (the lower panel of FIG. 28). […]

T1 sequence (P26358 whole entry): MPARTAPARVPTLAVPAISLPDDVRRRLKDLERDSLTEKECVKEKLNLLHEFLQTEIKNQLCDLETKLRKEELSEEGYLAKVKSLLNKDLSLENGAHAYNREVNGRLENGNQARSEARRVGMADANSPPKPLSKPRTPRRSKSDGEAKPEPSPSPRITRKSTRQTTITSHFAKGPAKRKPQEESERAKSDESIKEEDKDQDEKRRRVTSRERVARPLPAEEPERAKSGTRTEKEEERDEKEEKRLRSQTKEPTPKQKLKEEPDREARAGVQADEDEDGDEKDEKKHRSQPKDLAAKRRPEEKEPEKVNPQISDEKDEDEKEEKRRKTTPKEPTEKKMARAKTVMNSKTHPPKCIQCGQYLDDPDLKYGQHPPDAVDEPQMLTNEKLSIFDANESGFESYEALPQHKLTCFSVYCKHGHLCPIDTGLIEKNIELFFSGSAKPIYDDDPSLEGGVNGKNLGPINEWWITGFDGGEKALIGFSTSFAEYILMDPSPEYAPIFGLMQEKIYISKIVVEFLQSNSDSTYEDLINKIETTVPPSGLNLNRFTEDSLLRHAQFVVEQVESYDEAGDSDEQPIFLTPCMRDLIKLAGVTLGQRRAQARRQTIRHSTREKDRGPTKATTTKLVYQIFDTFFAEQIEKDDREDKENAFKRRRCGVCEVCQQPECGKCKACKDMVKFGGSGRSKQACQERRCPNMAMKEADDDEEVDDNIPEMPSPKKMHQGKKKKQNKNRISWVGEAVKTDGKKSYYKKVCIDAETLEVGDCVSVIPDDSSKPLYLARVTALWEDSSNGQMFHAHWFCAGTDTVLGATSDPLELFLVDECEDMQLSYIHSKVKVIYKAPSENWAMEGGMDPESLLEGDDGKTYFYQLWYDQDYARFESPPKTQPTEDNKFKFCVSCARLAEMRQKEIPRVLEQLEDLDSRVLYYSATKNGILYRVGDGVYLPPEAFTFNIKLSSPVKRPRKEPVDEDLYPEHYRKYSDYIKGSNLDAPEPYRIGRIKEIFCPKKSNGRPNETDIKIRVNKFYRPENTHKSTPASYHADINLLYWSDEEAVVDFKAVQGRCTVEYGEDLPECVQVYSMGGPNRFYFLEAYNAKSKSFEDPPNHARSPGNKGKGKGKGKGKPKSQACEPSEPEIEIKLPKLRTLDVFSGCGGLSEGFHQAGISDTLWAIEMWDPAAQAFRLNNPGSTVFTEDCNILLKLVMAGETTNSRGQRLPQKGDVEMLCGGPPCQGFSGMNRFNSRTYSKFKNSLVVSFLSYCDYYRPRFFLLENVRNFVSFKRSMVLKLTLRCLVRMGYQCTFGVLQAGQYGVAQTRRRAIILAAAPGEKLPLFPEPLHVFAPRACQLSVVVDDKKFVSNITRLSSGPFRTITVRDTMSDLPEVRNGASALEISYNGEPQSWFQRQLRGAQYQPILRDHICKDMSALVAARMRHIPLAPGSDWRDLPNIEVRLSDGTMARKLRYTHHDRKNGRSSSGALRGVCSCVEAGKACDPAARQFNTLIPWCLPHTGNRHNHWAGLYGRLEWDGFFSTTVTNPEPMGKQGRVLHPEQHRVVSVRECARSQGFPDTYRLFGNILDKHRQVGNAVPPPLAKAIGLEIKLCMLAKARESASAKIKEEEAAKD

- reduction of the activity of DNMT1 [4]: about 38%
Compound: NC(=O)c1cccc(NC(=O)/C=C/c2c[nH]c3ccccc23)c1 [RSC-133, 3-[3-(1H-indol-3-yl)-acrylamido]-benzamide]
- cytotoxicity (MTT) (human skin fibroblasts [1]): did not induce cytotoxicity
- growth of cells, reprogramming not induced (human skin fibroblasts [2]; human skin fibroblasts or OSKM-transfected fibroblasts, reprogramming not induced (FIG. 12)): increased the growth of the cells
- increase of growth rate of the cells during reprogramming (human skin fibroblasts [2]; reprogramming induced, compared to control group (FIG. 11)): about 1.7 times
- BrdU-positive cell population, reprogramming not induced (human skin fibroblasts [3]; OSKM-transfected human skin fibroblasts, reprogramming not induced (FIG. 14)): increased BrdU-positive cell population
- BrdU-positive cell population during the reprogramming process (human skin fibroblasts [3]; during reprogramming (FIG. 13)): increased BrdU-positive cell population
- induced differentiation and pluripotency of hESC in unconditioned medium (AP-positive colonies) ([5]; H9 cultured 6 days in UM supplemented with RSC-133 (FIG. 28)): the degree of induced differentiation was inhibited and pluripotency was re-acquired
- expression of Oct4 and H3K9ace (Western blot) ([5]; H9 in UM containing RSC-133 vs CM (FIG. 29)): at levels similar to those in the human embryonic stem cells cultured in CM
- expression of pluripotency-specific markers Oct4 and Tra1-81 (immunostaining) ([5]; H9 in UM supplemented with RSC-133 vs CM): expressed at levels similar to those of human embryonic stem cells cultured in CM

From US9587225B2, “Low-molecular-compound for improving production, maintenance and proliferation of pluripotent stem cells, composition comprising the same, and culture method” (KOREA RESEARCH INSTITUTE OF BIOSCIENCE AND BIOTECHNOLOGY, priority 2012, dated 2017)
